Measurements from US20150374680A1, “POCHOXIME CONJUGATES USEFUL FOR THE TREATMENT OF HSP90 RELATED PATHOLOGIES” (UNIVERSITE DE STRASBOURG, priority 2010, published 2015).
Like-named read-outs stand apart in the source and are kept apart here.

Tests used:
human HSP90α = biological target: T1, human HSP90α (Homo sapiens, UniProt P07900); test: biochemical; assay type: binding
T1 construct: purchased Stressgen SPP-776F

Her-2 in SkBr3 cells = test: Her-2 depletion in SkBr3 cells (pharmacodynamic marker of cellular efficacy); assay type: cell-based; conditions: Homo sapiens, SK-BR-3; SkBr3 cells treated with the inhibitor overnight; read-out: PD (μM), pharmacodynamic EC50, Her-2 depletion
Experimental: FIG. 2. Cellular efficacy of pochoximes A1B5C1D1 (IC50). Depletion of Her-2 in SkBr3 cells were treated treated with the inhibitor for 18 h. […]

[1] = competition assay, read-out: Measure KD against human HSP90α

Row | Structure (SMILES) | EC50 (human HSP90α) [nM] | other results
1 | CCCN(CCC)C(=O)CON=C1C=CCCC=CCCOC(=O)c2c(O)cc(O)cc2C1 [Compound A1B1C4D25] | 116 | EC50 (Her-2 in SkBr3 cells): ≤ 1 µM
2 | O=C1OCCC=CCCC=CC(=NOCC(=O)N2CCNCC2)Cc2cc(O)cc(O)c21 [Compound A1B1C4D12] | 640 | EC50 (Her-2 in SkBr3 cells): ≤ 5 µM
3 | CC1CCCC(C)N1C(=O)CON=C1C=CCCC=CCCOC(=O)c2c(O)cc(O)cc2C1 (stereo not shown) [Compound A1B1C4D6] | 238 | EC50 (Her-2 in SkBr3 cells): < 5 µM
4 | CCCC1CC=CCCC(C)=CC(=NOCC(=O)N2CCCCC2)Cc2cc(O)cc(O)c2C(=O)O1 (stereo not shown) [Compound A1B3C2D1] | 196 | EC50 (Her-2 in SkBr3 cells): ≤ 1 µM
5 | CC1CCN(C(=O)CON=C2C=CCCC=CCCOC(=O)c3c(O)cc(O)cc3C2)CC1 [Compound A1B1C4D4] | 70 | EC50 (Her-2 in SkBr3 cells): ≤ 0.5 µM
6 | C[C@@H]1C/C=C/[C@H](O)C/C=C/C(=NOCC(=O)N2CCCCC2)Cc2c(Cl)c(O)cc(O)c2C(=O)O1 [pochoxime E] | – | Kd (human HSP90α; [1]): 34 nM
7 | O=C1OCCC=CCCC=CC(=NOCC(=O)N2CC=CCC2)Cc2cc(O)cc(O)c21 [Compound A1B1C4D9] | 22 | EC50 (Her-2 in SkBr3 cells): ≤ 0.5 µM
8 | C[C@@H]1C/C=C/[C@H](O)C/C=C/C(=NOCC(=O)N2CCCCC2)Cc2cc(O)cc(O)c2C(=O)O1 [pochoxime F] | – | Kd (human HSP90α; [1]): 22 nM
9 | CCCC1CC=CCCC=CC(=NOCC(=O)N2CCCCC2)Cc2c(Cl)c(O)cc(O)c2C(=O)O1 (stereo not shown) [Compound A2B1C2D1] | 96 | EC50 (Her-2 in SkBr3 cells): ≤ 5 µM
10 | [N-]=[N+]=NCC1CC=CCCC=CC(=NOCC(=O)N2CCCCC2)Cc2c(Cl)c(O)cc(O)c2C(=O)O1 (stereo not shown) [Compound A2B1C7D1] | 79 | –
11 | CCCC1CC=CC(C)CC=CC(=NOCC(=O)N2CCCCC2)Cc2cc(O)cc(O)c2C(=O)O1 (stereo not shown) [Compound A1B4C2D1] | 811 | –
12 | CC1CCCCN1C(=O)CON=C1C=CCCC=CCCOC(=O)c2c(O)cc(O)cc2C1 (stereo not shown) [Compound A1B1C4D2] | 886 | –
13 | CC1C=CCC(C)OC(=O)c2c(O)cc(O)cc2CC(=NOCC(=O)N2CCCCC2)C=CC1 (stereo not shown) [Compound A1B4C1D1] | 32 | –
14 | O=C1OCCC=CCCC=CC(=NOCC(=O)N2CCCCCC2)Cc2cc(O)cc(O)c21 [Compound A1B1C4D23] | 140 | –
15 | O=C1OCCC=CC(O)CC=CC(=NOCC(=O)N2CCCCC2)Cc2c(Cl)c(O)cc(O)c21 (stereo not shown) [Compound A2B5C4D1] | 18 | –
16 | CC1CC=CCCC=CC(=NOCC(=O)N2CCCCC2)Cc2c(Cl)c(O)cc(O)c2C(=O)O1 (stereo not shown) [pochoxime D] | – | Kd (human HSP90α; [1]): 22 nM
17 | CC1CC=CCCC=CC(=NOCC(=O)N2CCCCC2)Cc2c(Cl)c(O)cc(O)c2C(=O)O1 (stereo not shown) [Compound A2B1C1D1] | 39 | –
18 | CCN(CC)C(=O)CON=C1C=CCCC=CCC(C)OC(=O)c2c(O)cc(O)cc2C1 (stereo not shown) [Compound A1B1C1D18] | 540 | –
19 | CC1CC=CC(NC(=O)CSC2OC(CO)C(O)C(O)C2O)CC=CC(=NOCC(=O)N2CCCCC2)Cc2cc(O)cc(O)c2C(=O)O1 (stereo not shown) [As-14(6-R)] | – | Kd (human HSP90α; Measure KD against human HSP90α (nM)): 90 nM
20 | CC(=O)N[C@H]1/C=C/C[C@@H](C)OC(=O)c2c(O)cc(O)cc2CC(=NOCC(=O)N2CCCCC2)/C=C/C1 [As-15(6-R)] | – | Kd (human HSP90α; [1]): 343 nM
21 | C[C@@H]1C/C=C/[C@H](N)C/C=C/C(=NOCC(=O)N2CCCCC2)Cc2cc(O)cc(O)c2C(=O)O1 [aminopochoxime E] | – | Kd (human HSP90α; [1]): 229 nM
22 | CC1CC=CC(O)CC=CC(=NOCC(=O)N2CCCCC2)Cc2cc(O)cc(O)c2C(=O)O1 (stereo not shown) [Compound A1B5C1D1] | 20 | –
23 | CC1CC=CC(N)CC=CC(=NOCC(=O)N2CCCCC2)Cc2cc(O)cc(O)c2C(=O)O1 (stereo not drawn) [epi-aminopochoxime E] | – | Kd (human HSP90α; [1]): 34 nM
24 | C[C@@H]1C/C=C/[C@@H](O)C/C=C/C(=NOCC(=O)N2CCCCC2)Cc2cc(O)cc(O)c2C(=O)O1 [epi-pochoxime F] | – | Kd (human HSP90α; [1]): 14 nM
25 | C[C@@H]1C/C=C/[C@@H](O)C/C=C/C(=NOCC(=O)N2CCCCC2)Cc2c(Cl)c(O)cc(O)c2C(=O)O1 [epi-pochoxime E] | – | Kd (human HSP90α; [1]): 38 nM
26 | CC1CC=CC(O)CC=CC(=NOCC(=O)N2CCCCC2)Cc2c(Cl)c(O)cc(O)c2C(=O)O1 (stereo not shown) [Compound A2B5C1D1] | 10 | –
27 | CN1CCN(C(=O)CON=C2C=CCCC=CCCOC(=O)c3c(O)cc(O)cc3C2)CC1 [Compound A1B1C4D13] | > 10000 | –
